Measured values as given in patent publication US8853239B2, “Compounds, pharmaceutical compositions and uses thereof” (Boehringer Ingelheim International GmbH, priority 2011, dated 2014).

What follows are compounds tested against T1, human GPR119 (Homo sapiens, UniProt Q8TDV5) (assay: AlphaScreen cAMP assay in MIN6 cells stably transfected with human GPR119). Conditions: Min-6/hGPR119 cells, stimulation of intracellular cAMP, 45 minutes incubation at room temperature.
T1 construct: expression vector for human GPR119 cDNA (Acc. No. NP_848566); expressed in transfected cells
T1 sequence (Q8TDV5 1-335): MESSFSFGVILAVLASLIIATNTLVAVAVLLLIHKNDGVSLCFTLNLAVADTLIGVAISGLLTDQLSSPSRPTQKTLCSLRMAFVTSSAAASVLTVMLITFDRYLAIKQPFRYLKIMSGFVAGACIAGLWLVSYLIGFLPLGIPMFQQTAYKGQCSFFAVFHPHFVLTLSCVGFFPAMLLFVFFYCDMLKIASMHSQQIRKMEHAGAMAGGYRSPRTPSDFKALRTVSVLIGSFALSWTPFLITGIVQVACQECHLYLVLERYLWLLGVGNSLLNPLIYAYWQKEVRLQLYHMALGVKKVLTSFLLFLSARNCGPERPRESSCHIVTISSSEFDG
Type: cell-based
Method: The compounds of formula I according to the invention modulate the activity of the G-protein-coupled receptor GPR119. The effect of the compounds on the activation of GPR119 and on the stimulation of intracellular cAMP concentration is determined using the AlphaScreen cAMP Assay Kit (Cat. No. #6760625R) made by PerkinElmer.
MIN6 cells [Miyazaki J et al. Endocrinology. 1990 July; 127(1):126-32] are stably transfected with an expression vector for human GPR119 cDNA (Acc. No. NP_848566). Min-6/hGPR119 cells are cultured in DMEM, 10% FBS, 50 μM β-mercaptoethanol, 0.3 mg/mL Geniticin, 2 mM GlutaMAX at 37° C. 5% CO2. For the assay, the cells are seeded in Optiplates (white, 384-well, 160W-barcoded, TC, sterile with lid, Cat. No. #6007688 (Perkin Elmer); 10000 cells/well; 50 μl). The plates covered with lids are then incubated for 24 hours at 37° C./5% CO2. After the medium is aspirated from the wells completely, 10 μl of the test compound are added, the compounds are diluted using stimulating buffer (140 mM NaCl, 3.6 mM KCl, 0.5 mM NaH2PO4, 0.5 mM MgSO4, 1.5 mM CaCl2, 10 mM Hepes, 5 mM NaHCO3; pH 7.4. 0.5 mM IBMX and 0.1% BSA, the final DMSO concentration is 1%). After 45 minutes incubation at room temperature (approx. 20° C.), the cAMP concentrations are determined using the AlphaScreen cAMP Assay Kit (Cat. No. #6760625R from PerkinElmer).

Compound	EC50 [nM]
CC(C)(F)CN1CCC(C2Cc3cc(-c4ccc(S(C)(=O)=O)cc4)ccc3O2)CC1 (centres unmarked) [Example 1, 1-(2-Fluoro-2-methyl-propyl)-4-[5-(4-methanesulfonyl-phenyl)-2,3-dihydro-benzofuran-2-yl]-piperidine]	417
CC(C)(F)CN1CCC(C2Cc3cc(C4=CCN(S(C)(=O)=O)CC4)ncc3O2)CC1 (centres unmarked) [Example 3, 2-[1-(2-Fluoro-2-methyl-propyl)-piperidin-4-yl]-5-(1-methanesulfonyl-1,2,3,6-tetrahydro-pyridin-4-yl)-2,3-dihydro-furo[2,3-c]pyridine]	36
CC(C)(F)CN1CCC(C2Cc3cc(-c4ccc(CS(C)(=O)=O)cc4)ncc3O2)CC1 (centres unmarked) [Example 4, 2-[1-(2-Fluoro-2-methyl-propyl)-piperidin-4-yl]-5-(4-methanesulfonylmethyl-phenyl)-2,3-dihydro-furo[2,3-c]pyridine]	215
CC(C)(F)CN1CCC(C2Cc3cc(C4CCN(S(C)(=O)=O)CC4)ncc3O2)CC1 (centres unmarked) [Example 5, 2-[1-(2-Fluoro-2-methyl-propyl)-piperidin-4-yl]-5-(1-methanesulfonyl-piperidin-4-yl)-2,3-dihydro-furo[2,3-c]pyridine]	663
CS(=O)(=O)Cc1ccc(-c2cc3c(cn2)OC(C2CCN(CC4(C(F)(F)F)CC4)CC2)C3)c(F)c1 (centres unmarked) [Example 7, 5-(2-Fluoro-4-methanesulfonylmethyl-phenyl)-2-{1-[(1-trifluoromethyl-cyclopropyl)methyl]-piperidin-4-yl}-2,3-dihydrofuro[2,3-c]pyridine]	22
CS(=O)(=O)Cc1ccc(-c2cc3c(cn2)OC(C2CCN(CC4(C(F)(F)F)CC4)CC2)C3)cc1 (centres unmarked) [Example 8, 5-(4-Methanesulfonylmethyl-phenyl)-2-{1-[(1-trifluoromethyl-cyclopropyl)methyl]-piperidin-4-yl}-2,3-dihydrofuro[2,3-c]pyridine]	35
CC(C)(F)CN1CCC([C@@]2(C)Cc3cc(-c4ccc(S(C)(=O)=O)cc4)ncc3O2)CC1 [Example 10, (R)-2-[1-(2-Fluoro-2-methyl-propyl)-piperidin-4-yl]-5-(4-methanesulfonyl-phenyl)-2-methyl-2,3-dihydro-furo[2,3-c]pyridine]	66
C[C@]1(C2CCN(CC3(C(F)(F)F)CC3)CC2)Cc2cc(C3=CCN(S(C)(=O)=O)CC3)ncc2O1 [Example 13, (R)-5-(1-Methanesulfonyl-1,2,3,6-tetrahydro-pyridin-4-yl)-2-methyl-2-{1-[(1-trifluoromethyl-cyclopropyl)methyl]-piperidin-4-yl}-2,3-dihydro-furo[2,3-c]pyridine]	5
CS(=O)(=O)N1CC=C(c2cc3c(cn2)O[C@@H](C2CCN(CC4(C(F)(F)F)CC4)CC2)C3)CC1 [Example 14, (R)-5-(1-Methanesulfonyl-1,2,3,6-tetrahydro-pyridin-4-yl)-2-{1-[(1-trifluoromethyl-cyclopropyl)methyl]-piperidin-4-yl}-2,3-dihydro-furo[2,3-c]pyridine]	2
CS(=O)(=O)N1CC=C(c2cc3c(cn2)O[C@H](C2CCN(CC4(C(F)(F)F)CC4)CC2)C3)CC1 [Example 15, (S)-5-(1-Methanesulfonyl-1,2,3,6-tetrahydro-pyridin-4-yl)-2-{1-[(1-trifluoromethyl-cyclopropyl)methyl]-piperidin-4-yl}-2,3-dihydro-furo[2,3-c]pyridine]	78
C[C@]1(C2CCN(CC3(C(F)(F)F)CC3)CC2)Cc2cc(-c3ccc(S(C)(=O)=O)cc3)ncc2O1 [Example 18]	27

Further compounds by falling EC50, results first:

EC50 [nM]	Compound
848	CC(C)(F)CN1CCC([C@@H]2Cc3cc(C4=CCN(S(C)(=O)=O)CC4)ncc3O2)CC1 [Example 11, (S)-2-[1-(2-Fluoro-2-methyl-propyl)-piperidin-4-yl]-5-(1-methanesulfonyl-1,2,3,6-tetrahydro-pyridin-4-yl)-2,3-dihydro-furo[2,3-c]pyridine]
100	CC(C)(F)CN1CCC(C2Cc3cc(-c4ccc(CS(C)(=O)=O)cc4F)ncc3O2)CC1 (centres unmarked) [Example 9, 5-(2-Fluoro-4-methanesulfonylmethyl-phenyl)-2-[1-(2-fluoro-2-methyl-propyl)-piperidin-4-yl]-2,3-dihydro-furo[2,3-c]pyridine]
84	CC(C)(F)CN1CCC([C@H]2Cc3cc(-c4ccc(S(C)(=O)=O)cc4)ncc3O2)CC1 [Example 19, (R)-2-[1-(2-Fluoro-2-methyl-propyl)-piperidin-4-yl]-5-(4-methanesulfonyl-phenyl)-2,3-dihydro-furo[2,3-c]pyridine]
46	CC(C)(F)CN1CCC([C@H]2Cc3cc(C4=CCN(S(C)(=O)=O)CC4)ncc3O2)CC1 [Example 12, (R)-2-[1-(2-Fluoro-2-methyl-propyl)-piperidin-4-yl]-5-(1-methanesulfonyl-1,2,3,6-tetrahydro-pyridin-4-yl)-2,3-dihydro-furo[2,3-c]pyridine]
25	CC(C)(F)CN1CCC([C@@]2(C)Cc3cc(C4=CCN(S(C)(=O)=O)CC4)ncc3O2)CC1 [Example 16, (R)-2-[1-(2-Fluoro-2-methyl-propyl)-piperidin-4-yl]-5-(1-methanesulfonyl-1,2,3,6-tetrahydro-pyridin-4-yl)-2-methyl-2,3-dihydro-furo[2,3-c]pyridine]
21	CS(=O)(=O)N1CC=C(c2cc3c(cn2)OC(C2CCN(CC4(C(F)(F)F)CC4)CC2)C3)CC1 (racemic) [Example 6, 5-(1-Methanesulfonyl-1,2,3,6-tetrahydro-pyridin-4-yl)-2-{1-[(1-trifluoromethyl-cyclopropyl)methyl]-piperidin-4-yl}-2,3-dihydro-furo[2,3-c]pyridine]
